Columns and labels:
[1] = tested on: Cluster headache patients; conditions: human, in vivo
[2] = tested on: pediatric procedural pain; conditions: in vivo; cited from earlier work
[3] = in vivo; cited from earlier work
[4] = tested on: major depressive disorder; conditions: in vivo; cited from earlier work
[5] = tested on: acute traumatic pain; conditions: in vivo; cited from earlier work
[6] = tested on: migraine or Cluster headache patients; conditions: in vivo, iv; cited from earlier work

Structure (SMILES): CCCC(CCC)C(=O)O [Depacon]
- Case 3: success in shutting the cluster episode down ([1]; iv): only partial success

Structure (SMILES): CCN(CC)CC(=O)Nc1c(C)cccc1C [lidocaine]
- Case 3: success in shutting the cluster episode down ([1]; iv): only partial success

Structure (SMILES): CNC1(c2ccccc2Cl)CCCCC1=O (stereo not drawn) [ketamine, 2-(2-chlorophenyl)-2-(methylamino)cyclohexanone]
- onset of analgesia [2]: rapid onset of analgesia
- side effects [2]: only slight sedation
- terminal plasma half-life [3]: 2 to 3 h
- time to peak plasma concentrations [3]: 10 to 15 min
- effect on depressive symptoms [4]: rapid improvement of the depressive symptoms
- serious adverse effects [4]: No serious adverse effects occurred
- efficacy in pain treatment compared to morphine IV or IM [5]: equal efficient in pain treatment
- hallucinations or out-of-body experience [5]: No patients complained of hallucinations or out of-body experience
- side effects [5]: mainly dizziness
- time to onset [5]: approx. 15 min
- patients complaining of spaciness, fearfulness, jitteriness or lack of personal control [6]: approximately 43%
- patients experiencing nausea at some point during treatment [6]: 3.2%
- Case 1: number of sprays after which patient reported feeling better [1]: 2-3 sprays
- Case 1: side effects (dysphoria, out-of-body) [1]: no side effects
- Case 2: cluster headache episode frequency over about a year [1]: beginning to get less frequent
- Case 3: long-term course of cluster headache episodes [1]: only had one short cluster headache episode in the last three to four years
- Cases 1-3: change from initial baseline on 0 to 10 Visual Analogue Scale (VAS) [1]: above 65%
- Cases 1-3: dysphoria or nausea [1]: Increased dysphoria or nausea was not noted
- Cases 1-3: out-of-body experiences or hallucinations [1]: No out-off body experiences, or hallucinations were observed
- Case 1: outcome of IV treatment on cluster headaches ([1]; iv): complete cessation of the cluster headaches in three days
- Case 2: change in cluster headache frequency ([1]; iv): from 5 episodes per day to only one cluster headache in the next week
- Case 3: shortening of the duration of the cluster episode ([1]; iv): greater than two-thirds
